From article PMC11032351, “Epigenetic modulation through BET bromodomain inhibitors as a novel therapeutic strategy for progranulin-deficient frontotemporal dementia” (Scientific Reports, 2024)

Columns and labels:
PGRN protein levels [1] = assay: Immunoblotting of PGRN protein in human NPCs; format: cell-based; conditions: 24 h, immunoblot
Description: (§1) All compounds were purchased from commercial vendors. All compounds were made at 1000 × stocks in DMSO (Sigma Aldrich #D2438), except for sodium valproate, which was dissolved in ddH2O. NPCs and neurons were generated and maintained as described above. For treatment, the stock compounds were diluted 1:1000 in NPC media (final DMSO concentration 0.1%), which was then applied to confluent NPCs or 18-day differentiated neurons derived from confluent NPC cultures for indicated time periods.
(§2) Cell pellets were collected from each well of a 6-well plate (or lysed directly in-well for 24-well plates), lysed in radio immunoprecipitation assay (RIPA) buffer (Boston BioProducts #BP-115) with EDTA-free protease inhibitors (Sigma Aldrich #4,693,159,001) and a phosphatase inhibitor cocktail (Sigma Aldrich #P5726) and nutated at 4 °C for 15–30 min. Lysates were clarified via centrifugation at > 14,000 rcf at 4 °C for > 10 min and the supernatants were collected. Protein quantification was done with the Pierce bicinchoninic assay (BCA) (Thermo Fisher #23,227). Lysates were then stored between − 20 and − 80 °C until ready for use. […]
(§3) In probing for PGRN, proteins were separated on NuPAGE 4–12% Bis–Tris gels (ThermoFisher #NP0335BOX) in MOPS SDS Running buffer (ThermoFisher #NP0001). […] Protein quantification was done with ImageJ and normalized to GAPDH.

PGRN protein levels [2] = assay: Immunoblotting of PGRN protein in 18-day differentiated neurons; format: cell-based, human; conditions: 24 hours, immunoblot
Description: NPCs were seeded at 0.5 × 10^6 cells per well in a poly-ornithine/laminin single coated 6-well plate in 2 mL NPC media with above growth factors. Cells were allowed to incubate at 37 °C for 48–72 h to grow to confluency. After reaching confluency, the media was aspirated, and cells were incubated in NPC media without growth factors for the indicated timeframes, with media changes every 3–4 days.
All compounds were purchased from commercial vendors. All compounds were made at 1000 × stocks in DMSO (Sigma Aldrich #D2438), except for sodium valproate, which was dissolved in ddH2O. NPCs and neurons were generated and maintained as described above. […]
as §2, with “Lysates were clarified via centrifugation at > 14,000 rcf at 4 °C for > 10 min and the supernatants were collected.” left out
as §3

GRN mRNA = assay: qPCR of GRN mRNA in human NPCs (enhancer screen and follow-up); format: cell-based; conditions: 24 h; for increase of GRN mRNA: NPCs
Description: as §1
RNA was generated from each well of a 6-well treated plate of NPCs or neurons. First, media from each well was aspirated, and washed with 1 mL of dPBS. Wells were then lysed with 1 mL TRIzol Reagent (ThermoFisher #11,596,026). Wells were then incubated at room temperature for 5 min, and then RNA was extracted using the DirectZol RNA MiniPrep Kit (Zymo Research #R2052). RNA was stored at − 80 °C until further use. cDNA was generated using the High-Capacity cDNA synthesis Kit with RNase inhibitor (ThermoFisher #4,368,814) using 1000–1200 ng RNA per reaction. cDNA was either used immediately or stored at -20 °C until use, where it was then diluted 1:4 with DNase/RNase-free water (Invitrogen #10,977–015).
qPCR was conducted using the Roche 480 Light Cycler in a 384-well plate. To each well was added 5 μL of TaqMan 2X Gene Expression Master Mix (ThermoFisher #4,369,510), 0.5 μL of 20X TaqMan primer probe (ThermoFisher, GRN: Hs00963707_g1, GAPDH: Cat.#432924E), 0.5 μL of DNase/RNase-free H2O, and 4 μL of above diluted cDNA. Results were normalized to GAPDH, and replicate mean values and standard error of the mean are reported.

PGRN-Luc = assay: HMC3 PGRN-luciferase reporter assay; format: cell-based, human; conditions: HMC3 PGRN-Luc cells, 20 h
Description: HMC3 PGRN-Luc cells were trypsinized from confluent T-75 flasks and re-suspended in HMC-3 media at 150,000–200,000 cells/mL. 30 µL of cell suspension was then seeded onto each well of black, 384-well clear-bottom plates (Corning 3712) using the Multidrop Combi (Thermo Fisher). Cells were allowed to adhere to plates in the incubator at 37 °C/5% CO2 for 6–8 h. After 6–8 h, compounds were added to each well using the D300e (Tecan) compound dispenser, and all wells were DMSO-normalized (0.3%). Cells were allowed to incubate with compounds for indicated timeframes.
Plates were removed from the incubator and allowed to cool to RT. 15 µL of media was removed from each well using a multichannel pipette and added to separate Corning 3712 plates for a read of “secreted” PGRN. To both the media-containing plates as well as the cell-containing plates (with 15 µL media remaining) is then added 15 µL of active luminescence reagent (Thermo 18,636) which was generated according to manufacturer’s instructions. Plates were allowed to nutate at RT for 15 min prior to reading using the EnVision (PerkinElmer). For calculation of the internal PGRN-Luc signal, the secreted signal (15 µL media) was subtracted from the signal of the cell-containing plates (with 15 µL media remaining). For “total” PGRN-Luc signal, a sample of media was not aliquoted into a separate plate, and instead, 30 µL of active luminescence reagent was added directly to each well.
For the mivebresib and panobinostat time-course experiment, the above procedure was followed, with the exception that cells were seeded at 66,600 cells/mL in 30 µL media, and allowed to grow overnight prior to compound addition for the indicated timeframes.

PGRN protein levels [3] = assay: PGRN quantification (Jess) in GRN R493X/+ NPCs; format: cell-based, human; conditions: 24 h
Description: (§4) PGRN capillary gel electrophoresis experiments were performed using Jess (Bio-Techne) and data were processed and analyzed using Compass for Simple Western software (version 6.0). Runs were conducted using EZ Standard Pack 1 12–230 kDa (Bio-Techne PS-ST01EZ-8), 12–230 kDa pre-filled plates (PS-PP03), 12–230 kDa separation module (SMW004), anti-rabbit HRP detection (DM-001), RePlex (RP-001), and total protein detection modules (DM-TP01, biotin labeling reagent 042-973) according to the manufacturer’s instructions, and with anti-PGRN primary (Abcam ab208777) diluted 1:50 in milk-free antibody dilution buffer (043–524). The following run settings were used for each experiment: separation time: 25 min, separation voltage: 375 V, RePlex purge time: 30 min, biotin labeling time: 30 min, antibody diluent time: 5 min, primary antibody time: 30 min, secondary antibody time: 30 min, total protein HRP time: 30 min. All intensity quantifications are normalized to the total protein assay quantification unless otherwise indicated.
(§5) For GRN^R493^X/+ NPCs, cells were grown to confluency in 6-well plates according to the above NPC culturing procedure. To each well was directly added 2 µL of 100 µM panobinostat, […], or DMSO only to produce final in-well concentrations of 100 nM or 1 µM, respectively (0.1% DMSO final concentration). […]

PGRN protein levels [4] = assay: PGRN quantification (Jess) in GRN R493X/+ 14-day differentiated neurons; format: cell-based, human; conditions: GRN R493X/+ 14-day growth factor differentiated neurons, 24 h
Description: as §4, §5

With `Cc1sc2c(c1C)C(c1ccc(Cl)cc1)=N[C@@H](CC(=O)OC(C)(C)C)c1nnc(C)n1-2` [(+)-JQ1] as the compound, how does the PGRN protein levels (PGRN protein levels [1]; 1 µM) read?
Its PGRN protein levels is “substantially increased PGRN protein levels”.

What about the PGRN expression (PGRN protein levels [2]; 1 µM) of the same compound?
Its PGRN expression is “can enhance PGRN expression”.

And the “increase of GRN mRNA” value (GRN mRNA; 1 µM)?
The value was ~ 2.5 fold.

Which PGRN protein levels (PGRN protein levels [1]; 10 µM) does the source give for `COc1ccccc1S(=O)(=O)Nc1ccc2c(c1)CN(C)C(=O)N2` [PFI-1] here?
The PGRN protein levels was “substantially increased PGRN protein levels”.

And the PGRN expression (PGRN protein levels [2]; 10 µM)?
Its PGRN expression is “can enhance PGRN expression”.

And the “increase of GRN mRNA” value (GRN mRNA; 10 µM)?
Its value is ~ 2.5 fold.

For `Cc1[nH]c2ccccc2c1CCNCc1ccc(/C=C/C(=O)NO)cc1` [Panobinostat, panobinostat], which “enhancement of internal PGRN-Luc signal” value (PGRN-Luc) is on record?
The value was “able to enhance both internal and secreted PGRN at sub-µM concentrations”.

What about the “enhancement of secreted PGRN-Luc signal” value (PGRN-Luc) of the same compound?
Its value is “able to enhance both internal and secreted PGRN at sub-µM concentrations”.

And the PGRN protein levels (PGRN protein levels [3])?
Its PGRN protein levels is “rescues PGRN haploinsufficiency”.

What about the “GRN Fold-change (Norm. to GAPDH) ± Std. Error” value (GRN mRNA; human NPCs, dose 1 µM, relative to DMSO) of the same compound?
The value was 3.08 ± 0.35.

What about the PGRN protein levels (PGRN protein levels [4]) of the same compound?
The PGRN protein levels was “rescues PGRN haploinsufficiency”.
